Results reported in paper PMC11984905, “Chiral Switch of Gadopiclenol: New Standards in MRI Probes” (Advanced Science, 2025).

What was measured:
[1] = Biodistribution and in vivo dynamic T1-weighted MRI; parameters: species or system A/J healthy mice; conditions: 0.1 mmol Gd/kg i.v.
Method: Dynamic T 1‐weighted MRI on twelve A/J healthy mice was used to compare the biodistribution of ([Gd(ent‐L2)] and [Gd(BT‐DO3A)] (Gadovist), n = 6 animals each), administered at 0.1 mmol Gd/kg. The MRI monitored the distribution within abdominal tissues for up to 1 h post‐administration MRI images and the pharmacokinetic curves are shown in Figure 6 .
All the procedures and the experiments were conducted according to the national and international laws on experimental animal research (L.D. 26/2014; Directive 2010/63/EU) and under a specific Italian Ministerial Authorization (project research number 46/2015‐PR). Twelve A/J healthy mice (females, 6–7 weeks old, supplied by Envigo RMS S.r.l.) were housed in a controlled environment (22°C, 55% humidity, 15–20 air changes/hour, 12‐h light/dark cycle) with ad libitum access to VRF1 (P) certified pellets and filtered water. To minimize discomfort, the animals were socially housed with enrichment items. Veterinary care was available throughout the study to alleviate any potential pain or distress following procedures. […] The animals were randomly assigned to two experimental groups (n = 6 each, with sample size confirmed via GPower) and underwent to Magnetic Resonance Imaging (MRI) experiments performed using a BioSpec 47/30 preclinical scanner (Bruker Biospin, Ettlingen, Germany) operating at […] (i.e., at a proton Larmor frequency of 125 MHz) and equipped with two‐channel 35 mm RF volume coil. During MRI experiments, all the animals were anaesthetized with isoflurane gas (≈1%) in O2. Anaesthesia was maintained by adjustment of gas level as a function of breath rate. Before injection of each test article, T 1‐weighted spin echo sequences were acquired on the animal in order to check the position of the animal. A series of T 1‐weighted 3D gradient echoscans (repetition time = 50 ms, flip angle = 50°, echo time = 2.8 ms, number of averages = 2, matrix size (3D) = 192 × 192 × 8, field of view = 2.5 × 2.5 × 1.2 cm, acquisition time = 154 s) were then acquired before and after the intravenous administration of a 50 mM saline solution (0.9%) of [Gd(ent‐L2)] (n = 6 mice) and [Gd(BT‐DO3A)] (Gadovist, Bayer Schering, Germany) (n = 6 mice) at an injection rate of ≈2 mL/min through a catheter placed in the tail vein of the animal. Both [Gd(ent‐L2)] and [Gd(BT‐DO3A)] were administered at a dose of 0.1 mmol Gd/kg corresponding to an administration volume of 2 mL kg^−1. The kinetics of the Gd(III)‐complexes was followed up to 60 min post‐injection. After imaging was performed, the mouse was removed from the scanner and returned to the Animal Facility room. At the end of the study all animals were sacrificed by overdose of anaesthesia and cervical dislocation. Unblinded image analysis was performed by positioning the region of interest (ROIs) over liver, kidney, muscle, and blood vessel. ROIs positioning and signal quantification was performed by using a home‐developed plugin, running on Image J.^[ [51] ^]
Signal enhancement (Enh) was calculated using the formula: Enh = 100×(SignalpostCA ‐SignalpreCA)/SignalpreCA, where SignalpreCA and SignalpostCA denote the MR signal before and after administration of contrast agents, respectively. Data were presented as mean ± standard deviation (SD). The sample size (n = 6 per group) was determined a priori using GPower software to ensure adequate statistical power. The Levene's test was employed to assess the homogeneity of variances among groups. For comparisons where homogeneity of variance was confirmed, a one‐way ANalysis Of VAriance (ANOVA) was applied to test the null hypothesis that treatment groups originate from the same distribution. Post‐hoc pairwise multiple comparisons were performed using Tukey's method when significant differences were detected. Statistical analyses and data visualization were conducted using Mathematica (Wolfram, USA), while summary statistics (mean, SD, and standard error) were calculated using Microsoft Excel (USA). […]

[2] = Eu^3+ complex, 0.1 M Me4NCl, 25 °C, cited from earlier work

| SMILES | elimination pathway [1] | average maximum signal enhancement in the liver ([1]; 3 T, n = 6) | wash-in and wash-out kinetics ([1]; up to 1 h post-administration) | maximum signal enhancement in the blood compartment, times higher than that of [Gd(BT-DO3A)] ([1]; same dose, 3 T, significance level 0.1%) | decrease in signal enhancement in the blood compartment ([1]; within 30 min, 3 T) | pGd (Eu^3+) ([2]; 1 µM metal, 10 µM L, pH 7.4) | logK GdL (Eu^3+) [2] | logKGdH2L (Eu^3+) [2] | logKGdH3L (Eu^3+) [2] | logKGdHL (Eu^3+) [2] | logK^c GdL (Eu^3+) ([2]; pH 7.4) |
| --- | --- | --- | --- | --- | --- | --- | --- | --- | --- | --- | --- |
| O=C(CCC(C(=O)[O-])N1CCN(C(CCC(=O)NCC(O)CO)C(=O)[O-])Cc2cccc(n2)CN(C(CCC(=O)NCC(O)CO)C(=O)[O-])CC1)NCC(O)CO.[Gd+3] (stereo not drawn) [[Gd(ent‐L2)]] | renal elimination remains the primary pathway | ≈ 210% | rapid wash‐in and wash‐out | ≈ 2 times | ≥ 50% |  |  |  |  |  |  |
| O=C(O)CCC(C(=O)O)N1CCN(C(CCC(=O)O)C(=O)O)Cc2cccc(n2)CN(C(CCC(=O)O)C(=O)O)CC1 (racemic) [rac‐L1, 2,2’,2’’-[3,6,9,15-tetraazabicyclo[9.3.1]pentadeca-1(15),11,13-triene-3,6,9-triyl]tripentanedioic acid] |  |  |  |  |  | 16.06 | 18.66 | 4.54 | 4.12 | 5.34 | 15.10 |
